Reference: patent US20230203081A1, “LINCOSAMIDE ANTIBIOTICS AND USES THEREOF” (President and Fellows of Harvard College, priority 2020, published 2023)
≈ marks a conversion by molar mass, not a printed value. Where two headings read alike, the source gives them in different places.

Assays:
Assay type in all cases: cell-based
[1] = test system: S. pyogenes ATCC 19615; assay: MIC (broth microdilution or agar dilution, CLSI)
How it was run: (§1)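 Inoculum for broth microdilution was 5×10^5 CFU/mL final, prepared from overnight 35° C blood-agar subcultures (separate handling for streptococcal and anaerobic strains); MICs read by CLSI broth microdilution or agar dilution.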

[2] = test system: E. coli ATCC 25922; assay: MIC (broth microdilution or agar dilution, CLSI)
How it was run: as §1

[3] = test system: S. pneumoniae ATCC 49619; assay: MIC (broth microdilution or agar dilution, CLSI)
How it was run: as §1

[4] = test system: S. aureus ATCC 29213; assay: MIC (broth microdilution or agar dilution, CLSI)
How it was run: as §1

[5] = test system: E. faecalis ATCC 29212; assay: MIC (broth microdilution or agar dilution, CLSI)
How it was run: as §1

[6] = test system: H. influenzae ATCC 49247; assay: MIC (broth microdilution or agar dilution, CLSI)
How it was run: as §1

[7] = test system: E. coli MP-9 ΔTolC; assay: MIC (broth microdilution or agar dilution, CLSI)
How it was run: as §1

[8] = test system: E. coli MP-74 LptD mutant; assay: MIC (broth microdilution or agar dilution, CLSI)
How it was run: (§2)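 MICs follow CLSI broth microdilution or agar dilution, testing typically 128-0.06 μg/mL compound at 2.5% final DMSO, in triplicate with clindamycin comparator. Non-anaerobic strains use CaMHB at a final inoculum of 5×10^5 CFU/mL; anaerobes like C. difficile and C. scindens use specialized procedures.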

[9] = test system: S. aureus BAA 977 iErmA; assay: microbe, parasite or virus in culture
How it was run: as §1

[10] = test system: S. aureus MP-549 msrA; assay: microbe, parasite or virus in culture
How it was run: as §1

[11] = test system: E. faecalis MMX 847; cErmB; assay: MIC (broth microdilution or agar dilution, CLSI); details: E. faecalis MMX 847, cErmB
How it was run: as §1

[12] = test system: S. pneumoniae MMX 3028 cErmB; assay: MIC (broth microdilution or agar dilution, CLSI); details: S. pneumoniae MMX 3028 cErmB
How it was run: as §1

[13] = test system: S. pneumoniae MMX 3031 cMefA; assay: MIC (broth microdilution or agar dilution, CLSI); details: S. pneumoniae MMX 3031 cMefA
How it was run: as §1

[14] = test system: S. pyogenes MMX 946; cErmB; assay: MIC (broth microdilution or agar dilution, CLSI); details: S. pyogenes MMX 946, cErmB
How it was run: as §1

[15] = test system: S. aureus MMX 3035 cErmA; assay: MIC (broth microdilution or agar dilution, CLSI); details: S. aureus MMX 3035 cErmA
How it was run: as §1

[16] = test system: E. coli ΔTolC; assay: microbe, parasite or virus in culture; details: Escherichia coli, E. coli HAV#038; ΔTolC
How it was run: as §1

[17] = test system: E. coli LptD; assay: MIC (broth microdilution or agar dilution, CLSI); details: Escherichia coli, E. coli HAV#040; LptD; read-out: MIC
How it was run: as §1

[18] = test system: K. pneumoniae ATCC 10031; assay: MIC (broth microdilution or agar dilution, CLSI)
How it was run: as §1

[19] = test system: C. difficile ATCC 700057; assay: MIC (broth microdilution or agar dilution, CLSI)
How it was run: as §2

[20] = test system: B. fragilis ATCC 25285; assay: MIC (broth microdilution or agar dilution, CLSI)
How it was run: as §2

[21] = test system: C. scindens ATCC 35704; assay: MIC (broth microdilution or agar dilution, CLSI); details: C. scindens ATCC 35704
How it was run: as §2

[22] = Streptococcus pyogenes, ATCC19615, S. pyogenes ATCC 19615, read-out: MIC
[23] = Streptococcus pneumoniae, ATCC49619, S. pneumoniae ATCC 49619, read-out: MIC
[24] = Staphylococcus aureus, ATCC29213, S. aureus ATCC 29213, read-out: MIC
[25] = Enterococcus faecalis, ATCC29212, E. faecalis ATCC 29212, read-out: MIC
[26] = Staphylococcus aureus, MP549MSRA, S. aureus MP-549 msrA
[27] = Escherichia coli, ATCC25922, E. coli ATCC 25922, read-out: MIC
[28] = Enterococcus faecalis, read-out: MIC
[29] = Streptococcus pneumoniae, MMX3028CERMB, read-out: MIC
[30] = Streptococcus pneumoniae, MMX3031CMEFA, read-out: MIC
[31] = Haemophilus influenzae, ATCC49247, H. influenzae ATCC 49247, read-out: MIC
[32] = Streptococcus pyogenes, read-out: MIC
[33] = Staphylococcus aureus, MMX3035CERMA, read-out: MIC

SMILES	MIC [1, 22] [µg/mL]	MIC [3, 23] [µg/mL]	MIC [4, 24] [µg/mL]	MIC [5, 25] [µg/mL]	MIC ([7]; Escherichia coli) [µg/mL]	MIC ([8]; Escherichia coli) [µg/mL]	MIC ([9]; Staphylococcus aureus, BAA977) [µg/mL]	MIC [10, 26] [µg/mL]	MIC [2, 27] [µg/mL]	MIC [11, 28] [µg/mL]	MIC [12, 29] [µg/mL]	MIC [13, 30] [µg/mL]	MIC [6, 31] [µg/mL]	MIC [14, 32] [µg/mL]	MIC [15, 33] [µg/mL]	further results
CSC1O[C@H]([C@H](NC(=O)[C@@H]2[C@@H]3OCC[C@H](CC(C)(C)C)C[C@H]3CN2C)[C@H](C)Cl)CC(O)[C@H]1O (stereo partly shown) [FSA-513004a]	0.25 (≈ 0.493 µM)	0.5 (≈ 0.986 µM)	1 (≈ 1.97 µM)	1 (≈ 1.97 µM)	> 128	128 (≈ 252 µM)	–	–	–	–	–	–	–	–	–	MIC ([2]; Escherichia coli, ATCC25922, E. coli ATCC 25922): > 128 µg/mL; MIC ([6]; Haemophilus influenzae, ATCC49247): 128 µg/mL (≈ 252 µM)
CSC1O[C@H]([C@H](NC(=O)[C@@H]2[C@@H]3OCC[C@@H](C4CCCC4)C[C@H]3CN2C)[C@H](C)Cl)CC(O)[C@H]1O (stereo partly shown) [FSA-513001b]	0.06 (≈ 0.119 µM)	0.06 (≈ 0.119 µM)	0.12 (≈ 0.238 µM)	0.12 (≈ 0.238 µM)	2 (≈ 3.96 µM)	4 (≈ 7.92 µM)	0.12 (≈ 0.238 µM)	0.12 (≈ 0.238 µM)	64 (≈ 127 µM)	16 (≈ 31.7 µM)	16 (≈ 31.7 µM)	≤ 0.06	4 (≈ 7.92 µM)	16 (≈ 31.7 µM)	32 (≈ 63.4 µM)	–
CCN1CCN(c2cc3c(cc2F)c(=O)c(C(=O)O)cn3C2CC2)CC1 [Enrofloxacin]	–	–	–	–	–	–	–	–	–	–	–	–	–	–	–	MIC [16]: ≤ 0.06 µg/mL; MIC ([10]; Staphylococcus aureus, MP549MSRA, S. aureus HAV#032, MP-549, MSR(A), read-out: MIC): 0.5 µg/mL (≈ 1.39 µM); MIC ([1]; Streptococcus pyogenes, ATCC19615, S. pyogenes HAV#004, ATCC 19615, read-out: MIC): 0.25 µg/mL (≈ 0.696 µM); MIC [17]: ≤ 0.06 µg/mL; MIC ([2]; Escherichia coli, ATCC25922, E. coli HAV#006, ATCC 25922, read-out: MIC): ≤ 0.06 µg/mL; MIC ([3]; Streptococcus pneumoniae, ATCC49619, S. pneumoniae HAV#003, ATCC 49619, read-out: MIC): 0.25 µg/mL (≈ 0.696 µM); MIC ([4]; Staphylococcus aureus, ATCC29213, S. aureus HAV#001, ATCC 29213, MP-549, read-out: MIC): 0.125 µg/mL (≈ 0.348 µM); MIC ([5]; Enterococcus faecalis, ATCC29212, E. faecalis HAV#005, ATCC 29212, read-out: MIC): 0.5 µg/mL (≈ 1.39 µM); MIC ([6]; Haemophilus influenzae, ATCC49247, H. influenzae HAV#007, ATCC 49247, read-out: MIC): ≤ 0.06 µg/mL; MIC ([18]; Klebsiella pneumoniae, ATCC10031, K. pneumoniae HAV#008, ATCC 10031, read-out: MIC): ≤ 0.06 µg/mL; MIC ([19]; Clostridioides difficile, ATCC700057, C. difficile HAV#011, ATCC 700057, read-out: MIC): 32 µg/mL (≈ 89 µM); MIC ([20]; Bacteroides fragilis, ATCC25285, B. fragilis HAV#013, ATCC 25285, read-out: MIC): 2 µg/mL (≈ 5.56 µM)
CSC1O[C@H]([C@H](NC(=O)[C@H]2NC[C@@H]3C[C@H](C(C)C)CCO[C@H]32)[C@H](C)Cl)C(O)[C@@H](O)[C@H]1O (stereo partly shown) [FSA-512078b]	–	–	–	–	–	–	–	–	–	–	–	–	–	–	–	MIC ([10]; S. aureus MP-549 msrA): 0.25 µg/mL (≈ 0.52 µM); MIC ([1]; S. pyogenes ATCC 19615): ≤0.12 µg/mL; MIC ([2]; E. coli ATCC 25922): 128 µg/mL (≈ 266 µM); MIC ([4]; S. aureus ATCC 29213): 0.5 µg/mL (≈ 1.04 µM); MIC ([5]; E. faecalis ATCC 29212): 0.5 µg/mL (≈ 1.04 µM); MIC ([6]; H. influenzae ATCC 49247): 32 µg/mL (≈ 66.5 µM); MIC ([7]; E. coli MP-9 ΔTolC): 4 µg/mL (≈ 8.32 µM); MIC ([18]; K. pneumoniae ATCC 10031): 4 µg/mL (≈ 8.32 µM); MIC ([8]; E. coli MP-74 LptD mutant): 16 µg/mL (≈ 33.3 µM)
CSC1O[C@H]([C@H](NC(=O)[C@@H]2[C@@H]3OCC[C@H](CC(C)C)C[C@H]3CN2C)[C@H](C)Cl)CC(O)[C@H]1O (stereo partly shown) [FSA-513003a]	0.06 (≈ 0.122 µM)	0.06 (≈ 0.122 µM)	0.12 (≈ 0.243 µM)	0.12 (≈ 0.243 µM)	1 (≈ 2.03 µM)	2 (≈ 4.06 µM)	0.12 (≈ 0.243 µM)	0.12 (≈ 0.243 µM)	32 (≈ 64.9 µM)	8 (≈ 16.2 µM)	8 (≈ 16.2 µM)	≤ 0.06	2 (≈ 4.06 µM)	8 (≈ 16.2 µM)	16 (≈ 32.4 µM)	–
CSC1O[C@H]([C@H](NC(=O)[C@@H]2[C@@H]3OCC[C@@H](C4CCCCC4)C[C@H]3CN2C)[C@H](C)Cl)CC(O)[C@H]1O (stereo partly shown) [FSA-513002b]	0.25 (≈ 0.482 µM)	0.25 (≈ 0.482 µM)	0.5 (≈ 0.963 µM)	0.5 (≈ 0.963 µM)	8 (≈ 15.4 µM)	16 (≈ 30.8 µM)	–	–	128 (≈ 247 µM)	–	–	–	8 (≈ 15.4 µM)	–	–	–
CSC1O[C@H]([C@H](NC(=O)[C@@H]2[C@@H]3OCC[C@H](C4CCCCC4)C[C@H]3CN2C)[C@H](C)Cl)CC(O)[C@H]1O (stereo partly shown) [FSA-513002a]	1 (≈ 1.93 µM)	0.5 (≈ 0.963 µM)	1 (≈ 1.93 µM)	2 (≈ 3.85 µM)	64 (≈ 123 µM)	64 (≈ 123 µM)	–	–	> 64	–	–	–	> 64	–	–	–
CSC1O[C@H]([C@H](NC(=O)[C@H]2NC[C@@H]3C[C@@H](C(C)C)CCO[C@H]32)[C@H](C)Cl)C(O)[C@@H](O)[C@H]1O (stereo partly shown) [FSA-512078a]	–	–	–	–	–	–	–	–	–	–	–	–	–	–	–	MIC ([9]; S. aureus BAA 977 iErmA): 0.06 µg/mL (≈ 0.125 µM); MIC ([10]; S. aureus MP-549 msrA): 0.06 µg/mL (≈ 0.125 µM); MIC ([1]; S. pyogenes ATCC 19615): 0.02 µg/mL (≈ 0.0416 µM); MIC ([2]; E. coli ATCC 25922): 32 µg/mL (≈ 66.5 µM); MIC [11]: 32 µg/mL (≈ 66.5 µM); MIC ([3]; S. pneumoniae ATCC 49619): 0.03 µg/mL (≈ 0.0624 µM); MIC [12]: 8 µg/mL (≈ 16.6 µM); MIC ([4]; S. aureus ATCC 29213): 0.06 µg/mL (≈ 0.125 µM); MIC [13]: 0.03 µg/mL (≈ 0.0624 µM); MIC ([5]; E. faecalis ATCC 29212): 0.25 µg/mL (≈ 0.52 µM); MIC ([6]; H. influenzae ATCC 49247): 8 µg/mL (≈ 16.6 µM); MIC [14]: 8 µg/mL (≈ 16.6 µM); MIC ([7]; E. coli MP-9 ΔTolC): 2 µg/mL (≈ 4.16 µM); MIC ([18]; K. pneumoniae ATCC 10031): 1 µg/mL (≈ 2.08 µM); MIC [15]: 32 µg/mL (≈ 66.5 µM); MIC ([19]; C. difficile ATCC 700057): 1 µg/mL (≈ 2.08 µM); MIC ([8]; E. coli MP-74 LptD mutant): 4 µg/mL (≈ 8.32 µM); MIC [21]: 0.25 µg/mL (≈ 0.52 µM); MIC ([20]; B. fragilis ATCC 25285): 1 µg/mL (≈ 2.08 µM)
CSC1O[C@H]([C@H](NC(=O)[C@H]2NC[C@@H]3C[C@@H](CC(C)C)CCO[C@H]32)[C@H](C)Cl)CC(O)[C@H]1O (stereo partly shown) [FSA-513018a]	≤ 0.06	≤ 0.06	≤ 0.06	≤ 0.06	0.5 (≈ 1.04 µM)	2 (≈ 4.17 µM)	≤ 0.06	≤ 0.06	16 (≈ 33.4 µM)	2 (≈ 4.17 µM)	0.5 (≈ 1.04 µM)	≤ 0.06	2 (≈ 4.17 µM)	0.5 (≈ 1.04 µM)	8 (≈ 16.7 µM)	–
